Here are results for 2 compounds from US20250177405A1, “METHODS OF TREATING NEUROLOGICAL AND CARDIOVASCULAR CONDITIONS” (ASTROCYTE PHARMACEUTICALS, INC., priority 2021, published 2025).

The nature of data set [1]: brain tissue binding (free fraction). It is filed as in vitro ADME, mouse. The note with it: mouse brain tissue. From the text:
(§1) Example 3 of U.S. Pat. No. 9,789,131, which is incorporated herein by reference, describes assays for determining the plasma and brain free fraction of certain compounds such as I-1. Compounds described herein may be evaluated using such assays or similar variants thereof.

Data set [2] deals with traumatic brain injury (TBI) in mice. The data set can be described thus: mouse traumatic brain injury (TBI) model. The note with it: in vivo. The procedure: Animals and traumatic brain injury (TBI): TBI is performed with a controlled closed skull injury model as described in Talley-Watts et al. 2012 (J. Neurotrauma 30, 55-66). Following the method described therein, a pneumatic impact device is used to generate a moderate TBI leaving the skull and dura matter intact. To achieve this, C57BL/6 mice are anesthetized with isoflurane (3% induction, 1% maintenance) in 100% oxygen. A body temperature of 37° C. is maintained using a temperature-controlled heated surgical table. A small midline incision is made on the scalp using aseptic surgical techniques. A 5 mm stainless steel disc is positioned on the skull and fixed using superglue on the right parietal bone between bregma and lamda over the somatosensory cortex. The mouse is then positioned on a stage directly under the pneumatic impact tip. […] Mice are placed in a Thermo-Intensive Care Unit (Braintree Scientific model FV-1; 37° C.; 27% O2) and monitored until fully awake and moving freely. […]
Western Blot Analysis for GFAP: At selected survival times, mice are anesthetized under isoflurane and sacrificed. […] The homogenate is transferred to a 2 mL tube and centrifuged at 1000 g for 10 minutes at 4° C. and the supernatant is collected and analyzed. Protein concentration is determined by the BCA assay using a 1:50 dilution. […]

Data set [3] in a line: plasma protein binding (free fraction). The data set is classed as in vitro ADME. The conditions noted are these: mouse.
Source text: as §1

Data set [4] deals with T1, A3R (Rattus norvegicus, UniProt P28647).
T1 sequence (P28647 1-320): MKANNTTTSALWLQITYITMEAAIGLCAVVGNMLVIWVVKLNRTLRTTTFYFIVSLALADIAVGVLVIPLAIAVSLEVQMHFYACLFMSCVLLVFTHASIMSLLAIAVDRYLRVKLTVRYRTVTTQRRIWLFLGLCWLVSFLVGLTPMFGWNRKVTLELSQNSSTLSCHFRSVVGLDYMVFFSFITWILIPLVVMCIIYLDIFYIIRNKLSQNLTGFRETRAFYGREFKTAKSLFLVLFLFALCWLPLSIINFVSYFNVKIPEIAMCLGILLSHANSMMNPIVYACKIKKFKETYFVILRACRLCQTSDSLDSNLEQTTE
The conditions noted are these: cited from earlier work.

The target of data set [5] is T1, A3R. In words: estimated brain receptor occupancy of R-PIA at A3R. The conditions noted are these: associated with beneficial ATP effects. It is filed as in vivo.
Source text: (§2) We therefore performed the same study using ^31P-ATP and measured the receptor engagement in the brain associated with the beneficial ATP effects.
The subject of data set [6] is reversible forebrain ischemia in the rat. The conditions noted are these: cited from earlier work.
The target in a further data set is T2, A1R (Rattus norvegicus, UniProt P25099).
T2 construct: measured the receptor engagement in the brain associated with the beneficial ATP effects; from tissue; host or cells: brain of living rats (cerebral ischemia model)
T2 sequence (P25099 1-326): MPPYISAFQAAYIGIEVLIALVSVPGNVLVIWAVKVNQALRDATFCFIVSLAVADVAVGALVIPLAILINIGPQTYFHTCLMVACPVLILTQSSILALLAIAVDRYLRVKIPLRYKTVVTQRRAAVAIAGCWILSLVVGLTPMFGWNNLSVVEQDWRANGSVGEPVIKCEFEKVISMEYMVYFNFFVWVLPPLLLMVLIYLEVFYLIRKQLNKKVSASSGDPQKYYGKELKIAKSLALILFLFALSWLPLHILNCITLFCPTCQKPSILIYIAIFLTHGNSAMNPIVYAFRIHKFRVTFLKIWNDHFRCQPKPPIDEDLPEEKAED
In words: estimated brain receptor occupancy of R-PIA at A1R. It is filed as in vivo. The conditions noted are these: associated with beneficial ATP effects.

For data set [7], the system named is rodent model of cerebral ischemia. The data set can be described thus: reproduction of Roucher study: ATP decline during cerebral ischemia. The data set is classed as in vivo, rat. The note with it: dose of 0.02 mg/kg, rats.
Source text: As part of the current study, we first reproduced the original Roucher results.
as §2

Source text for A1R: as §2

`CNC(=O)[C@H]1O[C@@H](n2cnc3c(NCc4cccc(I)c4)nc(Cl)nc32)[C@H](O)[C@@H]1O` [Cl-IB-MECA, 2-Chloro-N^6-(3-iodobenzyl)-adenosine-5′-N-methyluronamide, reference compound]: the “free (unbound) fraction in brain” value in data set [1] amounted to 0.002. Also, the “efficacy in mouse TBI model” value in data set [2] is “weakly active”. Moreover, the “free (unbound) fraction in plasma” value in data set [3] is on record as 0.002.
On to `C[C@H](Cc1ccccc1)Nc1ncnc2c1ncn2[C@@H]1O[C@H](CO)[C@@H](O)[C@H]1O` [Compound I-25, N^6-(L-2-Phenylisopropyl)adenosine], for which the Ki (commonly the dissociation constant of the complex between target and ligand, obtained from inhibition or displacement) at A3R [4] is 158 nM. For the same compound, at A3R [5], the “estimated RO % for A3R” value is reported as 1%. For the same compound, in data set [6] (30-min ischemia, reference group 6.30), the “intracellular pH” value is reported as 6.40+/−0.10. In addition, in data set [6] (before ischemia), the “effect on cerebral metabolism before ischemia” value is on record as “no effect”. The “phosphocreatine, % of the control level” value in data set [6] (end of 30-min ischemia, reference group 27+/−9%) is reported as 43+/−11%. Moreover, the “ATP, % of the control level” value in data set [6] (end of 30-min ischemia, reference group 40+/−23%) is recorded as 58+/−12%. In data set [6] (end of 30-min ischemia, reference group 905+/−229%), the “inorganic phosphate, % of the control level” value was 672+/−210%. Besides, the “recovery of PCr, ATP, Pi, and pHi to control levels” value in data set [6] (recirculation, versus reference group) is “faster recovery”. In addition, the “estimated RO % for A1R” value on A1R was 16%. Further, the “decline in ATP during ischemia” value in data set [7] is “partial reversal”.
